In the Kinase Knowledgebase extract (Sharma et al. 2016):

molecular target: PIK3CA (human) (UniProt P42336); test: Assessment of PIK3CA Kinase Activity
Sequence (P42336 whole entry, looked up): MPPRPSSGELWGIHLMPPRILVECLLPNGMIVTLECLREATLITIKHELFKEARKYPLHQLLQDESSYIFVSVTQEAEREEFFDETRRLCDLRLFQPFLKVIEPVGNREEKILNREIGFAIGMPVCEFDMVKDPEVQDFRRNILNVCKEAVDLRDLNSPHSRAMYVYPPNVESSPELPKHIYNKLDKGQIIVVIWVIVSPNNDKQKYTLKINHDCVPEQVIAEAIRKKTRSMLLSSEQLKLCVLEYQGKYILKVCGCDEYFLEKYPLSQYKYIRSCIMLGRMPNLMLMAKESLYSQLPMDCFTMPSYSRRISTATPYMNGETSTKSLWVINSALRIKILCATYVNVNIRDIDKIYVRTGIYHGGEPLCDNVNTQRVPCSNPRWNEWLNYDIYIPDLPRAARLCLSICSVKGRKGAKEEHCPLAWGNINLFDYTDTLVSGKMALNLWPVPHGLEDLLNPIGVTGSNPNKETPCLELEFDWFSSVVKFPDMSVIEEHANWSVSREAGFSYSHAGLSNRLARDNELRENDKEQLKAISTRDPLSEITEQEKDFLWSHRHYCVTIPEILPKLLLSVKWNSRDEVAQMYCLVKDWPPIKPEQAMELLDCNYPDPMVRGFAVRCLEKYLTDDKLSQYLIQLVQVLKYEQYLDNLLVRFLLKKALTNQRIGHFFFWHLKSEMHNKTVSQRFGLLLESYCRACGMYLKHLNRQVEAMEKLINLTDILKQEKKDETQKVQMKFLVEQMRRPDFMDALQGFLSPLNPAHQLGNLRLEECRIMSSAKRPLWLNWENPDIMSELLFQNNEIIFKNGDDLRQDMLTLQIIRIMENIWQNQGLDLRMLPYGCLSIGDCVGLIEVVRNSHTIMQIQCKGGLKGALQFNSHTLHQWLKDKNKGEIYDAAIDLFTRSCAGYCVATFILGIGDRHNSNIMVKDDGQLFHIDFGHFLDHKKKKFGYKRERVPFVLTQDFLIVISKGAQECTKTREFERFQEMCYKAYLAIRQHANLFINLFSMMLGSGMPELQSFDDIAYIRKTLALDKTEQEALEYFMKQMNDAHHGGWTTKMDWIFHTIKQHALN

SMILES | IC50
Cc1nc2ccc(-c3cc(C)c4c(c3)CN(c3nc(N)nc(C)c3C(C)C)CCO4)cc2[nH]1 | ≤ 100 nM
COCCOc1nc(C)c(C(C)C)c(N2CCOc3c(C)cc(-c4cnc5sc(N)nc5c4)cc3C2)n1 | ≤ 100 nM
CCn1cc(-c2cc(C)c3c(c2)CN(c2nc(N)nc(C)c2C(C)C)CCO3)cn1 | 100 to 500 nM
Cc1cc(-c2cnc3sc(N)nc3c2)cc2c1OCCN(c1ncnc3c1CC[C@H](C)C3)C2 | ≤ 100 nM
COc1ccc(-c2cc(C)c3c(c2)CN(c2nc(N)nc(C)c2C(C)C)CCO3)cn1 | ≤ 100 nM
Cc1cc(-c2cnc3sc(N)nc3c2)cc2c1OCCN(c1nc(C(C)O)nc(C)c1C(C)C)C2 (stereo unspecified) | ≤ 100 nM
Cc1cc(-c2cnc3sc(N)nc3c2)cc2c1OCCN(c1ncnc(Cl)c1C(C)(C)O)C2 | 100 to 500 nM
Cc1cc(-c2cnc3sc(N)nc3c2)cc2c1OCCN(c1nc(S(C)(=O)=O)nc(C)c1C(C)C)C2 | ≤ 100 nM
CNc1ncnc(N2CCOc3c(C)cc(-c4cnc5sc(N)nc5c4)cc3C2)c1[N+](=O)[O-] | 100 to 500 nM
Cc1cc(-c2cnc3sc(N)nc3c2)cc2c1OCCN(c1nc(N)ccc1C#N)C2 | ≤ 100 nM
Cc1cc(-c2cnc3sc(N)nc3c2)cc2c1OCCN(c1nc(CN(C)C)ncc1C(C)C)C2 | ≤ 100 nM
Cc1cc(-c2cnc3sc(N)nc3c2)cc2c1OCCN(c1nc(N)nc(Cl)c1C(C)C)C2 | ≤ 100 nM
CCc1c(C)nc(N)nc1N1CCOc2c(C)cc(-c3cnc4sc(N)nc4c3)cc2C1 | ≤ 100 nM
Cc1cc(-c2cnc3sc(N)nc3c2)cc2c1OCCN(c1nc(CNC3CC3)nc(C)c1C(C)C)C2 | ≤ 100 nM
Cc1cc(-c2cnc(N)s2)cc2c1OCCN(c1nc(N)nc(C)c1C(C)C)C2 | ≤ 100 nM
CCNCc1nc(C)c(C(C)C)c(N2CCOc3c(C)cc(-c4cnc5sc(N)nc5c4)cc3C2)n1 | ≤ 100 nM
Cc1cc(-c2cnc3sc(N)nc3c2)cc2c1OCCN(c1nc(CN3CCCC3)ncc1C(C)C)C2 | ≤ 100 nM
C=Cc1c(C)ncnc1N1CCOc2c(C)cc(-c3cnc4sc(N)nc4c3)cc2C1 | ≤ 100 nM
CC(=O)c1c(C)ncnc1N1CCOc2c(C)cc(-c3cnc4sc(N)nc4c3)cc2C1 | ≤ 100 nM
CCN(Cc1nc(C)c(C(C)C)c(N2CCOc3c(C)cc(-c4nnc(N)s4)cc3C2)n1)CC(F)F | ≤ 100 nM
Cc1cc(-c2cncnc2)cc2c1OCCN(c1nc(N)nc(C)c1C(C)C)C2 | 100 to 500 nM
Cc1cc(-c2cnc3sc(N)nc3c2)cc2c1OCCN(c1ncccc1C#N)C2 | 100 to 500 nM
Cc1cc(-c2cnc(Cl)c(NS(C)(=O)=O)c2)cc2c1OCCN(c1ncc(C#N)c(N)n1)C2 | ≤ 100 nM

SMILES | IC50
Cc1cc(-c2cnc3sc(N)nc3c2)cc2c1OCCN(c1nc(CN(C)C)nc(C)c1C(C)C)C2 | ≤ 100 nM
Cc1cc(-c2nnc(N)s2)cc2c1OCCN(c1nc(N)nc(C)c1C(C)C)C2 | ≤ 100 nM
C=C(C)c1c(C)ncnc1N1CCOc2c(C)cc(-c3cnc4sc(N)nc4c3)cc2C1 | ≤ 100 nM
CC(=O)Nc1ncc(-c2cc(C)c3c(c2)CN(c2nc(N)nc(C)c2C(C)C)CCO3)s1 | 100 to 500 nM
Cc1cc(-c2cnc3sc(N)nc3c2)cc2c1OCCN(c1ncc(C#N)c(N)n1)C2 | ≤ 100 nM
Cc1cc(-c2cnc3nc[nH]c3c2)cc2c1OCCN(c1nc(CN(C)CC(F)F)nc(C)c1C(C)C)C2 | ≤ 100 nM
Cc1cc(-c2cnc(Cl)c(NS(=O)(=O)C(F)(F)F)c2)cc2c1OCCN(c1nc(N)nc(C)c1C(C)C)C2 | ≤ 100 nM
Cc1cc(-c2cnc(N)nc2)cc2c1OCCN(c1nc(N)nc(C)c1C(C)C)C2 | ≤ 100 nM
CCN(CCF)Cc1nc(C)c(C(C)C)c(N2CCOc3c(C)cc(-c4cnc5sc(N)nc5c4)cc3C2)n1 | ≤ 100 nM
Cc1cc(-c2cnc3sc(N)nc3c2)cc2c1OCCN(c1nc(C3CC3)nc(C)c1C(C)C)C2 | ≤ 100 nM
Cc1cc(-c2cnc3sc(N)nc3c2)cc2c1OCCN(c1nc(NCCN(C)C)nc(C)c1C(C)C)C2 | ≤ 100 nM
COc1ccc(-c2cc(C)c3c(c2)CN(c2nc(N)nc(C)c2C(C)C)CCO3)cc1OC | ≤ 100 nM
Cc1cc(-c2cnc3sc(N)nc3c2)cc2c1OCCN(c1nc([C@@H]3CC(F)(F)CN3)nc(C)c1C(C)C)C2 | ≤ 100 nM
Cc1cc(-c2cnc3sc(N)nc3c2)cc2c1OCCN(c1ncc(C(F)(F)F)c(N)n1)C2 | 100 to 500 nM
Cc1cc(-c2cnc(Cl)c(NS(C)(=O)=O)c2)cc2c1OCCN(c1nc(C(N)=O)nc(C)c1C(C)C)C2 | ≤ 100 nM
CNc1nc(-c2cc(C)c3c(c2)CN(c2nc(N)nc(C)c2C(C)C)CCO3)cs1 | 100 to 500 nM
Cc1cc(-c2cnc3sc(N)nc3c2)cc2c1OCCN(c1nc(N)nc3c1CC(C)(C)CC3)C2 | ≤ 100 nM
CCc1cnc(CN(C)C)nc1N1CCOc2c(C)cc(-c3cnc4sc(N)nc4c3)cc2C1 | ≤ 100 nM
Cc1cc(-c2cnc(Cl)c(NS(C)(=O)=O)c2)cc2c1OCCN(c1nc(N)ncc1C(F)(F)F)C2 | ≤ 100 nM
CCc1nc(CN(C)C)nc(N2CCOc3c(C)cc(-c4cnc5sc(N)nc5c4)cc3C2)c1C(C)C | ≤ 100 nM
Cc1nc2ccc(-c3cc(C)c4c(c3)CN(c3ncnc5ccc(I)cc35)CCO4)cc2[nH]1 | ≤ 100 nM
COCCc1nc(C)c(C(C)C)c(N2CCOc3c(C)cc(-c4cnc(Cl)c(NS(C)(=O)=O)c4)cc3C2)n1 | ≤ 100 nM
CCc1c(Cl)nc(N)nc1N1CCOc2c(C)cc(-c3cnc4sc(N)nc4c3)cc2C1 | ≤ 100 nM
